Experimental data from PMC12563087, “Preparation, Stability and In Vitro Antineoplastic Function of Lecithin–Chitosan–Polyethylene Glycol Nanoparticles Loaded with Bioactive Peptides Derived from Phycocyanin” (Foods, 2025).
Ends that are not written are not given here.

Test system: pepsin
Experiment: In vitro simulated gastric digestion (pepsin) of PCPs and PCP-loaded NPs
Type: in vitro ADME
Details: after 20 min of in vitro simulated gastric digestion by pepsin; mean ± SD

For MFDAFTK [PCP3], the degradation rate was 77.24% ± 1.72%.

With ADSLLSGLR [PCP2] the degradation rate was 71.65% ± 2.99%.

With AGDASVLEDR [PCP1] the degradation rate was 78.82% ± 3.46%.
